Laboratory results published in the kinase profiling compilation of Christmann-Franck et al. (2016).

Key:
Assay in all cases: KINOMEscan competition binding
Conditions in all cases: compound 10.0 µM
[1] = test system: ABL1 (human), P00519 [Y253F]
AURKB (human) = AURKB (human) (UniProt Q96GD4)
BMPR2 (human) = BMPR2 (human) (UniProt Q13873)
CAMK1D (human) = CAMK1D (human) (UniProt Q8IU85)
CAMK1G (human) = CAMK1G (human) (UniProt Q96NX5)
CAMK2A (human) = CAMK2A (human) (UniProt Q9UQM7)
CDKL1 (human) = CDKL1 (human) (UniProt Q00532)
CHEK1 (human) = CHEK1 (human) (UniProt O14757)
CHUK (human) = CHUK (human) (UniProt O15111)
CSK (human) = CSK (human) (UniProt P41240)
DAPK2 (human) = DAPK2 (human) (UniProt Q9UIK4)
DCLK1 (human) = DCLK1 (human) (UniProt O15075)
FES (human) = FES (human) (UniProt P07332)
FGFR3 (human) = FGFR3 (human) (UniProt P22607)
[2] = test system: FLT3 (human), P36888 [D835H]
FRK (human) = FRK (human) (UniProt P42685)
GAK (human) = GAK (human) (UniProt O14976)
GRK4 (human) = GRK4 (human) (UniProt P32298)
GRK4 (human), sequence (P32298 whole entry, looked up): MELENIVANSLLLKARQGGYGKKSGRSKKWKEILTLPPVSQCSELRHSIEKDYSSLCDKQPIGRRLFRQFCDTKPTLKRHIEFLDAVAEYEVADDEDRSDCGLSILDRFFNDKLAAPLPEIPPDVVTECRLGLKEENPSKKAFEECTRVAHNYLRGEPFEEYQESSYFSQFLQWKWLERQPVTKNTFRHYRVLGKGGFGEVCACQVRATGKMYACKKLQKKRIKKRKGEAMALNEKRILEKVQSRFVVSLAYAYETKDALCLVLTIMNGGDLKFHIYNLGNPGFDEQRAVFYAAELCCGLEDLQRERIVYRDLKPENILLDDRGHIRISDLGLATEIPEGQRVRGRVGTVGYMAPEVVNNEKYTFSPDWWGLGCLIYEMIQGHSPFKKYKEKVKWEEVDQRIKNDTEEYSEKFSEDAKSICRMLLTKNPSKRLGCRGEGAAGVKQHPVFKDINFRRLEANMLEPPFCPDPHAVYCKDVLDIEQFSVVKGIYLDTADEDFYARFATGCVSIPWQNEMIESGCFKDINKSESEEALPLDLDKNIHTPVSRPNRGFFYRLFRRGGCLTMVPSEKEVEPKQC

GSK3A (human) = GSK3A (human) (UniProt P49840)
HIPK3 (human) = HIPK3 (human) (UniProt Q9H422)
HUNK (human) = HUNK (human) (UniProt P57058)
INSR (human) = INSR (human) (UniProt P06213)
IRAK1 (human) = IRAK1 (human) (UniProt P51617)
IRAK1 (human), sequence (P51617 whole entry, looked up): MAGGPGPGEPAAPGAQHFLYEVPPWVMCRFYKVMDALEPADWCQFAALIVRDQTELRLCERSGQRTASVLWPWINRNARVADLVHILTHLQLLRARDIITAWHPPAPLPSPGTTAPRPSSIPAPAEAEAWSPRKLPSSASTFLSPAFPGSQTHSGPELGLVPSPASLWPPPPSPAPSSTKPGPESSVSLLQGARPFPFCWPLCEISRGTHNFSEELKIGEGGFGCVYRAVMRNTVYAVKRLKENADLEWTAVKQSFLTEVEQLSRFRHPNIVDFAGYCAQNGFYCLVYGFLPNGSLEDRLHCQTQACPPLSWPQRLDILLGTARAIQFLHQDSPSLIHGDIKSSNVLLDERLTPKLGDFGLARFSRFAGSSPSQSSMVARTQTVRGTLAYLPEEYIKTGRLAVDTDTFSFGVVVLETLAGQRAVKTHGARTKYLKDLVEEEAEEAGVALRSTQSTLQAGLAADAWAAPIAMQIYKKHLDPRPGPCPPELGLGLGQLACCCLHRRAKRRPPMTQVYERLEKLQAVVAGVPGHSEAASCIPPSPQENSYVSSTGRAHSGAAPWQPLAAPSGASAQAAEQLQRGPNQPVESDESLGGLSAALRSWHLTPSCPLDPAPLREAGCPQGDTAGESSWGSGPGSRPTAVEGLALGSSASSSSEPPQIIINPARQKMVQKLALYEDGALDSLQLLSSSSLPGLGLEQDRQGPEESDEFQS

KIT (human) = KIT (human) (UniProt P10721)
KIT (human), sequence (P10721 whole entry, looked up): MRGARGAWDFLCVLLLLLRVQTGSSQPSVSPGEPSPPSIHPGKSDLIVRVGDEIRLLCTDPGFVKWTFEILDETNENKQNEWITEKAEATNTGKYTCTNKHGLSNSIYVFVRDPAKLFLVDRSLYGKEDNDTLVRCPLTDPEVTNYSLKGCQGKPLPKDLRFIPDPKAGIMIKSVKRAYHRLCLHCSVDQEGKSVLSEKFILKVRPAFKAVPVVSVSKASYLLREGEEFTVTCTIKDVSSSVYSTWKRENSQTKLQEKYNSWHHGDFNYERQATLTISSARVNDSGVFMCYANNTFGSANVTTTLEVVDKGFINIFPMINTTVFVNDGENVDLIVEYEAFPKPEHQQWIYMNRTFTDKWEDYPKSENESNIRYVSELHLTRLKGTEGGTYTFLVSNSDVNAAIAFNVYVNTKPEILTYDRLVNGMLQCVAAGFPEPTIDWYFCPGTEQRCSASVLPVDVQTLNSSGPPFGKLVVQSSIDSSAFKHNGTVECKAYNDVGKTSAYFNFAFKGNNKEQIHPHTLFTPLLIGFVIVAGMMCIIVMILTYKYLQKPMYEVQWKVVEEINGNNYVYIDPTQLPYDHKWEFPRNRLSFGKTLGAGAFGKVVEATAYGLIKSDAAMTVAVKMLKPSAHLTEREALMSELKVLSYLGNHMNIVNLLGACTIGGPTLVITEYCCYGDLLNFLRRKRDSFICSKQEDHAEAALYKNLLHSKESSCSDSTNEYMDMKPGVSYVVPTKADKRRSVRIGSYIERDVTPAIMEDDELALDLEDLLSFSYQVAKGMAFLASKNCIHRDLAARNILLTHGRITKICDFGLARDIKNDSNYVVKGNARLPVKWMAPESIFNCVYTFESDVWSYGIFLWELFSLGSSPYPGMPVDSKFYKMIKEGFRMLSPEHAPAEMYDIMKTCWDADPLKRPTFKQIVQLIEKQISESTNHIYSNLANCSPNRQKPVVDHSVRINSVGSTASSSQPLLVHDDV

LCK (human) = LCK (human) (UniProt P06239)
LIMK2 (human) = LIMK2 (human) (UniProt P53671)
MAP2K1 (human) = MAP2K1 (human) (UniProt Q02750)
MAP3K13 (human) = MAP3K13 (human) (UniProt O43283)
MAPK14 (human) = MAPK14 (human) (UniProt Q16539)
MUSK (human) = MUSK (human) (UniProt O15146)
NEK11 (human) = NEK11 (human) (UniProt Q8NG66)
PDPK1 (human) = PDPK1 (human) (UniProt O15530)
PKN2 (human) = PKN2 (human) (UniProt Q16513)
PRKACB (human) = PRKACB (human) (UniProt P22694)
PRKD1 (human) = PRKD1 (human) (UniProt Q15139)
PRKD1 (human), sequence (Q15139 whole entry, looked up): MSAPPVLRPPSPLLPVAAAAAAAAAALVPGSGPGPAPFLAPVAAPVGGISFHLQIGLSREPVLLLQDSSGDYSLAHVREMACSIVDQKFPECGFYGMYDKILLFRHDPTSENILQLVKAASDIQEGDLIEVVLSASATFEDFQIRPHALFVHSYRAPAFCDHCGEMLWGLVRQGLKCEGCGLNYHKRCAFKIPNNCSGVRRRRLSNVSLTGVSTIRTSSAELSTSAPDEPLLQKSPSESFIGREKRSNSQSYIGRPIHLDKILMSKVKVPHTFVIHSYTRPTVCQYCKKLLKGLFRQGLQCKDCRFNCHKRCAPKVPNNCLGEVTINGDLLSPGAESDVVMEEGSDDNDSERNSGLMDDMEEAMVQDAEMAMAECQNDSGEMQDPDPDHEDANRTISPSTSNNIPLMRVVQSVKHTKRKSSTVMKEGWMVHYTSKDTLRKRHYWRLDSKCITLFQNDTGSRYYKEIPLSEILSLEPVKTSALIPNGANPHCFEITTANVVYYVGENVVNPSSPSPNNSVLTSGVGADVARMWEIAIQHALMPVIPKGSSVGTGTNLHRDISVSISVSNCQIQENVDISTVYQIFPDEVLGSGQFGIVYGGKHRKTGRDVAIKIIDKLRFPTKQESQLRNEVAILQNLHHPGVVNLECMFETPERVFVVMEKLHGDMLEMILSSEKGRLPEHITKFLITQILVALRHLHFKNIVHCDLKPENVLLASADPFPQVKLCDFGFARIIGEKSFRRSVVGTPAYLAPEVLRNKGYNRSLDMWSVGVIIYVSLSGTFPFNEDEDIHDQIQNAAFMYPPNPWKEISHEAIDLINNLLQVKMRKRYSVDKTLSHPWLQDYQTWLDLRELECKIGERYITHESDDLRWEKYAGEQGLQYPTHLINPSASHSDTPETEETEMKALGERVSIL

RPS6KA1 KD2 (human) = RPS6KA1 KD2 (human) (UniProt Q15418)
SGK3 (human) = SGK3 (human) (UniProt Q96BR1)
STK32C (human) = STK32C (human) (UniProt Q86UX6)
STK32C (human), sequence (Q86UX6 whole entry, looked up): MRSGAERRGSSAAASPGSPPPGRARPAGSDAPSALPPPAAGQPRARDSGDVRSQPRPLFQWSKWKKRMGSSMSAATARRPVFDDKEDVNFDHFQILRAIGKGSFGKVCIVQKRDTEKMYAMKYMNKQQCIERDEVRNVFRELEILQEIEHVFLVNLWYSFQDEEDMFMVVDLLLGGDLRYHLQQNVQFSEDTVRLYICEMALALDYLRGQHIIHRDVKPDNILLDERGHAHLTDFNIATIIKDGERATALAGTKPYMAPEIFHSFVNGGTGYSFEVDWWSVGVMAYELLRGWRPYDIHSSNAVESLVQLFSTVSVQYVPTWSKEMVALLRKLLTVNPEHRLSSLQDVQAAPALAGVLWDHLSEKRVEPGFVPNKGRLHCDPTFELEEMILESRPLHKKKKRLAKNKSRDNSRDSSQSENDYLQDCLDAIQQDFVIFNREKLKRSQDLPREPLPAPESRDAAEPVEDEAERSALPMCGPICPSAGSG

STK4 (human) = STK4 (human) (UniProt Q13043)
ULK1 (human) = ULK1 (human) (UniProt O75385)
ULK3 (human) = ULK3 (human) (UniProt Q6PHR2)

CAMK1D (human), sequence (Q8IU85 whole entry, looked up): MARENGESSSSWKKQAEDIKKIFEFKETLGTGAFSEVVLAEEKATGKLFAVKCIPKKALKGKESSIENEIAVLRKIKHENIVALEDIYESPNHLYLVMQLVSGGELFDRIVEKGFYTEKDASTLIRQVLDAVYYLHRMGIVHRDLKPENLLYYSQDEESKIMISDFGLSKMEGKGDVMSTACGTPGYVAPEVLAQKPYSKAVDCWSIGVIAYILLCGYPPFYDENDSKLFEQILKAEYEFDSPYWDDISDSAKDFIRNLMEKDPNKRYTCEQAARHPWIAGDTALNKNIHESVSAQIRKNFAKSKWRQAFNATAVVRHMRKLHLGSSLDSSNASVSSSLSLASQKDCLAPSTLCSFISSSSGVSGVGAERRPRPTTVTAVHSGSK
CAMK2A (human), sequence (Q9UQM7 whole entry, looked up): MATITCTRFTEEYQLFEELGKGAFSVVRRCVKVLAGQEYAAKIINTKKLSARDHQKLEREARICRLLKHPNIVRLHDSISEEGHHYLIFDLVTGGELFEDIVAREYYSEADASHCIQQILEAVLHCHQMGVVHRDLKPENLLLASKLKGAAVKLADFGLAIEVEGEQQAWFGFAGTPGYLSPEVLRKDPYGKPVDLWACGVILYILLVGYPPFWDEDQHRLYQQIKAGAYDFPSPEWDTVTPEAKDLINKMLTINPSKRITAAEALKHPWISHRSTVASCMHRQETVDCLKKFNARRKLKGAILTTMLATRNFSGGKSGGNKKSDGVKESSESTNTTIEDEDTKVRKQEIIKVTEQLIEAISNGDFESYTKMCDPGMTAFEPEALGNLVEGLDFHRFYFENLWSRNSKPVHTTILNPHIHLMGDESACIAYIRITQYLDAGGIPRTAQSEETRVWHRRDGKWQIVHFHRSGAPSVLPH
AURKB (human), sequence (Q96GD4 whole entry, looked up): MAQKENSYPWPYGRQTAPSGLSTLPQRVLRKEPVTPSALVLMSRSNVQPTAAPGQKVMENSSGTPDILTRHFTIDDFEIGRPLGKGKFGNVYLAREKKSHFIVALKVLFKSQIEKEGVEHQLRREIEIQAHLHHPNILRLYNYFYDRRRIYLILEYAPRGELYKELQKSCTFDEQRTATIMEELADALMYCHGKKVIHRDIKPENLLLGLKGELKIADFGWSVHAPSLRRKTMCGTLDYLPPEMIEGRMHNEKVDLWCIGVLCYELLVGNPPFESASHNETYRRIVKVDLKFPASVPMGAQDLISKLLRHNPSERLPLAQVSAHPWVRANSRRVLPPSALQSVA

CCN1CCN(C(=O)Cc2ccc(Nc3ncc(F)c(Nc4ccc(C(=O)Nc5ccccc5Cl)cc4)n3)cc2)CC1
kinase still bound, per cent of control [1]: 16%
kinase still bound, per cent of control (AURKB (human)): 14%
kinase still bound, per cent of control (BMPR2 (human)): 25%
kinase still bound, per cent of control (CAMK1D (human)): 5.6%
kinase still bound, per cent of control (CAMK1G (human)): 39%
kinase still bound, per cent of control (CAMK2A (human)): 68%
kinase still bound, per cent of control (CDKL1 (human)): 41%
kinase still bound, per cent of control (CHEK1 (human)): 100%
kinase still bound, per cent of control (CHUK (human)): 84%
kinase still bound, per cent of control (CSK (human)): 73%
kinase still bound, per cent of control (DAPK2 (human)): 15%
kinase still bound, per cent of control (DCLK1 (human)): 74%
kinase still bound, per cent of control (FES (human)): 48%
kinase still bound, per cent of control (FGFR3 (human)): 20%
kinase still bound, per cent of control [2]: 0.6%
kinase still bound, per cent of control (FRK (human)): 28%
kinase still bound, per cent of control (GAK (human)): 5.7%
kinase still bound, per cent of control (GRK4 (human)): 8.8%
kinase still bound, per cent of control (GSK3A (human)): 88%
kinase still bound, per cent of control (HIPK3 (human)): 12%
kinase still bound, per cent of control (HUNK (human)): 49%
kinase still bound, per cent of control (INSR (human)): 78%
kinase still bound, per cent of control (IRAK1 (human)): 22%
kinase still bound, per cent of control (KIT (human)): 1%
kinase still bound, per cent of control (LCK (human)): 6.6%
kinase still bound, per cent of control (LIMK2 (human)): 30%
kinase still bound, per cent of control (MAP2K1 (human)): 76%
kinase still bound, per cent of control (MAP3K13 (human)): 44%
kinase still bound, per cent of control (MAPK14 (human)): 97%
kinase still bound, per cent of control (MUSK (human)): 11%
kinase still bound, per cent of control (NEK11 (human)): 100%
kinase still bound, per cent of control (PDPK1 (human)): 96%
kinase still bound, per cent of control (PKN2 (human)): 100%
kinase still bound, per cent of control (PRKACB (human)): 76%
kinase still bound, per cent of control (PRKD1 (human)): 100%
kinase still bound, per cent of control (RPS6KA1 KD2 (human)): 45%
kinase still bound, per cent of control (SGK3 (human)): 100%
kinase still bound, per cent of control (STK32C (human)): 77%
kinase still bound, per cent of control (STK4 (human)): 98%
kinase still bound, per cent of control (ULK1 (human)): 28%
kinase still bound, per cent of control (ULK3 (human)): 1.5%

C=CC(=O)Nc1cc(-n2c(=O)ccc3cnc4ccc(-c5cn[nH]c5)cc4c32)ccc1C
kinase still bound, per cent of control [1]: 71%
kinase still bound, per cent of control (AURKB (human)): 97%
kinase still bound, per cent of control (BMPR2 (human)): 4.6%
kinase still bound, per cent of control (CAMK1D (human)): 86%
kinase still bound, per cent of control (CAMK1G (human)): 79%
kinase still bound, per cent of control (CAMK2A (human)): 21%
kinase still bound, per cent of control (CDKL1 (human)): 33%
kinase still bound, per cent of control (CHEK1 (human)): 100%
kinase still bound, per cent of control (CHUK (human)): 100%
kinase still bound, per cent of control (CSK (human)): 100%
kinase still bound, per cent of control (DAPK2 (human)): 57%
kinase still bound, per cent of control (DCLK1 (human)): 94%
kinase still bound, per cent of control (FES (human)): 100%
kinase still bound, per cent of control (FGFR3 (human)): 89%
kinase still bound, per cent of control [2]: 14%
kinase still bound, per cent of control (FRK (human)): 99%
kinase still bound, per cent of control (GAK (human)): 18%
kinase still bound, per cent of control (GRK4 (human)): 84%
kinase still bound, per cent of control (GSK3A (human)): 13%
kinase still bound, per cent of control (HIPK3 (human)): 48%
kinase still bound, per cent of control (HUNK (human)): 86%
kinase still bound, per cent of control (INSR (human)): 90%
kinase still bound, per cent of control (IRAK1 (human)): 41%
kinase still bound, per cent of control (KIT (human)): 65%
kinase still bound, per cent of control (LCK (human)): 64%
kinase still bound, per cent of control (LIMK2 (human)): 100%
kinase still bound, per cent of control (MAP2K1 (human)): 69%
kinase still bound, per cent of control (MAP3K13 (human)): 84%
kinase still bound, per cent of control (MAPK14 (human)): 97%
kinase still bound, per cent of control (MUSK (human)): 93%
kinase still bound, per cent of control (NEK11 (human)): 100%
kinase still bound, per cent of control (PDPK1 (human)): 100%
kinase still bound, per cent of control (PKN2 (human)): 82%
kinase still bound, per cent of control (PRKACB (human)): 100%
kinase still bound, per cent of control (PRKD1 (human)): 100%
kinase still bound, per cent of control (RPS6KA1 KD2 (human)): 94%
kinase still bound, per cent of control (SGK3 (human)): 96%
kinase still bound, per cent of control (STK32C (human)): 100%
kinase still bound, per cent of control (STK4 (human)): 83%
kinase still bound, per cent of control (ULK1 (human)): 87%
kinase still bound, per cent of control (ULK3 (human)): 97%

O=C(Nc1cccc(Nc2ncc(Br)c(NCCc3cnc[nH]3)n2)c1)N1CCCC1
kinase still bound, per cent of control [1]: 0.1%
kinase still bound, per cent of control (AURKB (human)): 0%
kinase still bound, per cent of control (BMPR2 (human)): 13%
kinase still bound, per cent of control (CAMK1D (human)): 4.6%
kinase still bound, per cent of control (CAMK1G (human)): 28%
kinase still bound, per cent of control (CAMK2A (human)): 27%
kinase still bound, per cent of control (CDKL1 (human)): 1.8%
kinase still bound, per cent of control (CHEK1 (human)): 0.4%
kinase still bound, per cent of control (CHUK (human)): 4.1%
kinase still bound, per cent of control (CSK (human)): 24%
kinase still bound, per cent of control (DAPK2 (human)): 22%
kinase still bound, per cent of control (DCLK1 (human)): 35%
kinase still bound, per cent of control (FES (human)): 33%
kinase still bound, per cent of control (FGFR3 (human)): 1%
kinase still bound, per cent of control [2]: 0.2%
kinase still bound, per cent of control (FRK (human)): 46%
kinase still bound, per cent of control (GAK (human)): 1.4%
kinase still bound, per cent of control (GRK4 (human)): 5.6%
kinase still bound, per cent of control (GSK3A (human)): 60%
kinase still bound, per cent of control (HIPK3 (human)): 3.7%
kinase still bound, per cent of control (HUNK (human)): 73%
kinase still bound, per cent of control (INSR (human)): 27%
kinase still bound, per cent of control (IRAK1 (human)): 0.25%
kinase still bound, per cent of control (KIT (human)): 0.15%
kinase still bound, per cent of control (LCK (human)): 3.4%
kinase still bound, per cent of control (LIMK2 (human)): 59%
kinase still bound, per cent of control (MAP2K1 (human)): 0.15%
kinase still bound, per cent of control (MAP3K13 (human)): 9.9%
kinase still bound, per cent of control (MAPK14 (human)): 100%
kinase still bound, per cent of control (MUSK (human)): 9.4%
kinase still bound, per cent of control (NEK11 (human)): 85%
kinase still bound, per cent of control (PDPK1 (human)): 2.4%
kinase still bound, per cent of control (PKN2 (human)): 4.6%
kinase still bound, per cent of control (PRKACB (human)): 1%
kinase still bound, per cent of control (PRKD1 (human)): 0.65%
kinase still bound, per cent of control (RPS6KA1 KD2 (human)): 13%
kinase still bound, per cent of control (SGK3 (human)): 91%
kinase still bound, per cent of control (STK32C (human)): 100%
kinase still bound, per cent of control (STK4 (human)): 12%
kinase still bound, per cent of control (ULK1 (human)): 0.05%
kinase still bound, per cent of control (ULK3 (human)): 0.1%
